Assay results from ChEMBL document CHEMBL1201862, “PubChem BioAssay data set” (2004).
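All cell lines were grown in 96-well plates and treated with compound for 48 hours. GI50: concentration for 50% inhibition of growth.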 Activity calls are given as the source filed them. Rule as the data show it: active = GI50 up to about 1.1 µM and inactive = higher.

Columns and labels:
Assay in all cases: NCI anticancer screen, dose series, 48 h
K562 = test system: K562
COLO 205 = test system: COLO 205
TK-10 = test system: TK-10
OVCAR-5 = test system: OVCAR-5
MDA-N = test system: MDA-N
SF-268 = test system: SF-268
SN12C = test system: SN12C
UO-31 = test system: UO-31
HCC 2998 = test system: HCC 2998
HCT-15 = test system: HCT-15
HOP-92 = test system: HOP-92
SK-OV-3 = test system: SK-OV-3
EKVX = test system: EKVX
OVCAR-3 = test system: OVCAR-3
SK-MEL-5 = test system: SK-MEL-5
CAKI-1 = test system: CAKI-1
HCT-116 = test system: HCT-116
U-251 = test system: U-251
A549 = test system: A549
DU-145 = test system: DU-145
Malme-3M = test system: Malme-3M
OVCAR-4 = test system: OVCAR-4
ACHN = test system: ACHN
A498 = test system: A498
OVCAR-8 = test system: OVCAR-8
786-0 = test system: 786-0
Hs-578T = test system: Hs-578T
SF-295 = test system: SF-295
MDA-MB-231 = test system: MDA-MB-231
HT-29 = test system: HT-29
T47D = test system: T47D
NCI-H23 = test system: NCI-H23
NCI-H226 = test system: NCI-H226
NCI-H460 = test system: NCI-H460
SK-MEL-2 = test system: SK-MEL-2
BT-549 = test system: BT-549
LOX IMVI = test system: LOX IMVI
SW-620 = test system: SW-620
SNB-19 = test system: SNB-19
MDA-MB-435 = test system: MDA-MB-435
MOLT-4 = test system: MOLT-4
UACC-62 = test system: UACC-62
SK-MEL-28 = test system: SK-MEL-28
M14 = test system: M14
RPMI-8226 = test system: RPMI-8226
RXF 393 = test system: RXF 393
KM12 = test system: KM12
UACC-257 = test system: UACC-257
NCI/ADR-RES = test system: NCI/ADR-RES
HOP-62 = test system: HOP-62

For O=C1/C(=C\c2cccc(Oc3ccccc3)c2)SC(c2ccccc2)N1c1cccc(Cl)c1 (stereo not given), the GI50 (K562) was > 100 µM (inactive), the GI50 (COLO 205) was > 100 µM (inactive) and the GI50 (TK-10) was > 100 µM (inactive). The GI50 (OVCAR-5) was > 100 µM (inactive), the GI50 (MDA-N) was > 100 µM (inactive) and the GI50 (SF-268) was > 100 µM (inactive). The GI50 (SN12C) was > 100 µM (inactive), the GI50 (UO-31) was > 100 µM (inactive) and the GI50 (HCC 2998) was > 100 µM (inactive). The GI50 (HCT-15) was greater than 100 µM, the GI50 (HOP-92) was > 100 µM (inactive) and the GI50 (SK-OV-3) was > 100 µM (inactive). The GI50 (EKVX) was > 100 µM (inactive), the GI50 (OVCAR-3) was > 100 µM (inactive) and the GI50 (SK-MEL-5) was > 100 µM (inactive). For the same molecule, the GI50 (CAKI-1) was > 100 µM (inactive), the GI50 (HCT-116) was > 100 µM (inactive) and the GI50 (U-251) was > 100 µM (inactive). For the same molecule, the GI50 (A549) was > 100 µM (inactive), the GI50 (DU-145) was > 100 µM (inactive) and the GI50 (Malme-3M) was > 100 µM (inactive). The GI50 (OVCAR-4) was > 100 µM (inactive), the GI50 (ACHN) was > 100 µM (inactive) and the GI50 (A498) was > 100 µM (inactive). For the same molecule, the GI50 (OVCAR-8) was > 100 µM (inactive), the GI50 (786-0) was > 100 µM (inactive) and the GI50 (Hs-578T) was > 100 µM (inactive). The GI50 (SF-295) was > 100 µM (inactive), the GI50 (MDA-MB-231) was > 100 µM (inactive) and the GI50 (HT-29) was > 100 µM (inactive). The GI50 (T47D) was > 100 µM (inactive), the GI50 (NCI-H23) was > 100 µM (inactive) and the GI50 (NCI-H226) was > 100 µM (inactive). For the same molecule, the GI50 (NCI-H460) was > 100 µM (inactive), the GI50 (SK-MEL-2) was > 100 µM (inactive) and the GI50 (BT-549) was > 100 µM (inactive). The GI50 (LOX IMVI) was > 100 µM (inactive), the GI50 (SW-620) was > 100 µM (inactive) and the GI50 (SNB-19) was > 100 µM (inactive). The GI50 (MDA-MB-435) was 92.7 µM (inactive), the GI50 (MOLT-4) was > 100 µM (inactive) and the GI50 (UACC-62) was > 100 µM (inactive). For the same molecule, the GI50 (SK-MEL-28) was > 100 µM (inactive), the GI50 (M14) was > 100 µM (inactive) and the GI50 (RPMI-8226) was > 100 µM (inactive). For the same molecule, the GI50 (RXF 393) was 64.1 µM (inactive), the GI50 (KM12) was 35.8 µM (inactive) and the GI50 (UACC-257) was > 100 µM (inactive). The GI50 (NCI/ADR-RES) was > 100 µM (inactive) and the GI50 (HOP-62) was > 100 µM (inactive).
